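Growth conditions: 96-well plates. Treatment: test compound, 48 hours, 5 concentrations. Analysis: linear interpolation between bracketing concentrations; unreached endpoints set to highest concentration. TGI: total growth inhibition.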
Columns and labels:
Test in all cases: DTP human tumour cell line panel, 48 h
SR leukemia = tested on: SR leukemia
NCI/ADR-RES ovarian = tested on: NCI/ADR-RES ovarian
MDA-MB-435 = tested on: MDA-MB-435
MDA-N = tested on: MDA-N
HOP-92 NSCLC = tested on: HOP-92 NSCLC
HCT-116 colon = tested on: HCT-116 colon
NCI-H460 lung = tested on: NCI-H460 lung
OVCAR-5 ovarian = tested on: OVCAR-5 ovarian
DLD-1 colon = tested on: DLD-1 colon
T-47D breast = tested on: T-47D breast
MCF7 breast = tested on: MCF7 breast
OVCAR-3 ovarian = tested on: OVCAR-3 ovarian
NCI-H226 lung = tested on: NCI-H226 lung
K-562 leukemia = tested on: K-562 leukemia
SF-268 CNS = tested on: SF-268 CNS
KM20L2 colon = tested on: KM20L2 colon
UACC-257 melanoma = tested on: UACC-257 melanoma
NCI-H23 lung = tested on: NCI-H23 lung
U251 CNS = tested on: U251 CNS
SF-539 CNS = tested on: SF-539 CNS
RXF 393 renal = tested on: RXF 393 renal
LOX IMVI melanoma = tested on: LOX IMVI melanoma
DU-145 prostate = tested on: DU-145 prostate
HL-60(TB) leukemia = tested on: HL-60(TB) leukemia
MALME-3M melanoma = tested on: MALME-3M melanoma
SK-MEL-28 melanoma = tested on: SK-MEL-28 melanoma
UO-31 renal = tested on: UO-31 renal
KM12 colon = tested on: KM12 colon
ACHN renal = tested on: ACHN renal
RXF-631 renal = tested on: RXF-631 renal
NCI-H522 lung = tested on: NCI-H522 lung
SNB-78 CNS = tested on: SNB-78 CNS
BT-549 breast = tested on: BT-549 breast
TK-10 renal = tested on: TK-10 renal
OVCAR-4 ovarian = tested on: OVCAR-4 ovarian
SK-OV-3 ovarian = tested on: SK-OV-3 ovarian
SW-620 colon = tested on: SW-620 colon
MDA-MB-231 breast = tested on: MDA-MB-231 breast
RPMI-8226 leukemia = tested on: RPMI-8226 leukemia
786-0 renal = tested on: 786-0 renal
PC-3 prostate = tested on: PC-3 prostate
HS 578T breast = tested on: HS 578T breast
A549 NSCLC = tested on: A549 NSCLC
UACC-62 melanoma = tested on: UACC-62 melanoma
HCT-15 colon = tested on: HCT-15 colon
M14 melanoma = tested on: M14 melanoma
COLO 205 colon = tested on: COLO 205 colon
HCC-2998 colon = tested on: HCC-2998 colon
SNB-19 CNS = tested on: SNB-19 CNS
DMS 114 small cell lung = tested on: DMS 114 small cell lung
CCRF-CEM leukemia = tested on: CCRF-CEM leukemia
EKVX NSCLC = tested on: EKVX NSCLC
SF-295 CNS = tested on: SF-295 CNS
DMS 273 small cell lung = tested on: DMS 273 small cell lung
SK-MEL-5 melanoma = tested on: SK-MEL-5 melanoma
SK-MEL-2 melanoma = tested on: SK-MEL-2 melanoma
SNB-75 CNS = tested on: SNB-75 CNS
MOLT-4 leukemia = tested on: MOLT-4 leukemia
A498 renal = tested on: A498 renal
HOP-62 NSCLC = tested on: HOP-62 NSCLC
OVCAR-8 ovarian = tested on: OVCAR-8 ovarian
CAKI-1 renal = tested on: CAKI-1 renal
XF 498 CNS = tested on: XF 498 CNS
SN12C renal = tested on: SN12C renal
M19-MEL melanoma = tested on: M19-MEL melanoma
IGROV1 ovarian = tested on: IGROV1 ovarian
HT29 colon = tested on: HT29 colon

With `N=C(N)SCc1cccc2c(=O)cc(-c3ccccc3)oc12` the TGI (SR leukemia) was > 100 µM, the TGI (NCI/ADR-RES ovarian) was > 100 µM and the TGI (MDA-MB-435) was 21.5 µM. For the same compound, the TGI (MDA-N) was 21.3 µM, the TGI (HOP-92 NSCLC) was 16.9 µM and the TGI (HCT-116 colon) was 19.7 µM. It also gave a TGI (NCI-H460 lung) of 22.9 µM, a TGI (OVCAR-5 ovarian) of 41.8 µM and a TGI (DLD-1 colon) of 48.5 µM. For the same compound, the TGI (T-47D breast) was 15.9 µM, the TGI (MCF7 breast) was 16.3 µM and the TGI (OVCAR-3 ovarian) was 23.1 µM. For the same compound, the TGI (NCI-H226 lung) was 58 µM, the TGI (K-562 leukemia) was > 42.2 µM and the TGI (SF-268 CNS) was 45.8 µM. The TGI (KM20L2 colon) was 45.6 µM, the TGI (UACC-257 melanoma) was 26 µM and the TGI (NCI-H23 lung) was 31.3 µM. The TGI (U251 CNS) was 27.3 µM, the TGI (SF-539 CNS) was 20.9 µM and the TGI (RXF 393 renal) was 19.5 µM. It also gave a TGI (LOX IMVI melanoma) of 28.3 µM, a TGI (DU-145 prostate) of 16.2 µM and a TGI (HL-60(TB) leukemia) of 13.1 µM. It also gave a TGI (MALME-3M melanoma) of 27.2 µM, a TGI (SK-MEL-28 melanoma) of 6.37 µM and a TGI (UO-31 renal) of 11.3 µM. It also gave a TGI (KM12 colon) of 27.3 µM, a TGI (ACHN renal) of 15.5 µM and a TGI (RXF-631 renal) of 28.5 µM. It also gave a TGI (NCI-H522 lung) of 13.6 µM, a TGI (SNB-78 CNS) of 31.7 µM and a TGI (BT-549 breast) of 28.2 µM. It also gave a TGI (TK-10 renal) of 26.8 µM, a TGI (OVCAR-4 ovarian) of 31.2 µM and a TGI (SK-OV-3 ovarian) of 30.5 µM. The TGI (SW-620 colon) was > 39.3 µM, the TGI (MDA-MB-231 breast) was 21.4 µM and the TGI (RPMI-8226 leukemia) was 18.4 µM. It also gave a TGI (786-0 renal) of 23.3 µM, a TGI (PC-3 prostate) of 17.3 µM and a TGI (HS 578T breast) of 45.4 µM. The TGI (A549 NSCLC) was 29 µM, the TGI (UACC-62 melanoma) was 32.4 µM and the TGI (HCT-15 colon) was > 65.7 µM. For the same compound, the TGI (M14 melanoma) was 27.5 µM, the TGI (COLO 205 colon) was 27.3 µM and the TGI (HCC-2998 colon) was 27.1 µM. The TGI (SNB-19 CNS) was > 61.1 µM, the TGI (DMS 114 small cell lung) was 31.1 µM and the TGI (CCRF-CEM leukemia) was 18.6 µM. For the same compound, the TGI (EKVX NSCLC) was 37.9 µM, the TGI (SF-295 CNS) was 26.5 µM and the TGI (DMS 273 small cell lung) was 27.7 µM. The TGI (SK-MEL-5 melanoma) was 29.8 µM, the TGI (SK-MEL-2 melanoma) was 25.2 µM and the TGI (SNB-75 CNS) was 19.4 µM. It also gave a TGI (MOLT-4 leukemia) of 8.79 µM, a TGI (A498 renal) of 35.8 µM and a TGI (HOP-62 NSCLC) of 44.8 µM. For the same compound, the TGI (OVCAR-8 ovarian) was 29.8 µM, the TGI (CAKI-1 renal) was 11.3 µM and the TGI (XF 498 CNS) was 28.4 µM. The TGI (SN12C renal) was 25.9 µM, the TGI (M19-MEL melanoma) was 49.9 µM and the TGI (IGROV1 ovarian) was 30.2 µM. For the same compound, the TGI (HT29 colon) was 24.8 µM.

— PubChem BioAssay (NCI)
